Paper PMC12755129 (Blood, 2025)

Molecular target: LRRC8A (SWELL1), LRRC8 volume-regulated anion channel complex (Homo sapiens, UniProt Q8IWT6)
Assay: patch clamp of hypotonic swell-activated VRAC/ATP currents in MEG-01 cells
Format: cell-based

Sequence of LRRC8A (SWELL1), LRRC8 volume-regulated anion channel complex (Q8IWT6 whole entry): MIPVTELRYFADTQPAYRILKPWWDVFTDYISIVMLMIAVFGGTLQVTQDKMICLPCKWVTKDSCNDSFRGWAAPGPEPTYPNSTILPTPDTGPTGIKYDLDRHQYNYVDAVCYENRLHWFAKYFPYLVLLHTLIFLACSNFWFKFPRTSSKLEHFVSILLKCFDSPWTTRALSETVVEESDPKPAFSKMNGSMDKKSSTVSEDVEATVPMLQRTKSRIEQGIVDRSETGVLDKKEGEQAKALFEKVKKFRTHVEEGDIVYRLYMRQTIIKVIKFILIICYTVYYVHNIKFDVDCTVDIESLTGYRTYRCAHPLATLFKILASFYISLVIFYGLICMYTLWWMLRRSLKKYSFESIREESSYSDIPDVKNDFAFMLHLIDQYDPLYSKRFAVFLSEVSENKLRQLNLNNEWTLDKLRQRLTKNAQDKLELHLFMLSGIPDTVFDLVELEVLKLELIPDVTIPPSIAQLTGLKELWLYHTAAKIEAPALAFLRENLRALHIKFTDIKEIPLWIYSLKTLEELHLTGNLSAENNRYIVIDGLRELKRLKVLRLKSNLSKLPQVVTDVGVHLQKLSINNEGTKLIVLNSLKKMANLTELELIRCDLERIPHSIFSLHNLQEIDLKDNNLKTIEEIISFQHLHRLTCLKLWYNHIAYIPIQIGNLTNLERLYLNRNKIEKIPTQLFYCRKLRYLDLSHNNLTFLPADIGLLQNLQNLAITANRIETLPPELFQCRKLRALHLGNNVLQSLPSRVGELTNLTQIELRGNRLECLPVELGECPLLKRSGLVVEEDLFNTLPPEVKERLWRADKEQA
Sequence of LRRC8A (SWELL1), LRRC8 volume-regulated anion channel complex (Q6P9F7 whole entry partner): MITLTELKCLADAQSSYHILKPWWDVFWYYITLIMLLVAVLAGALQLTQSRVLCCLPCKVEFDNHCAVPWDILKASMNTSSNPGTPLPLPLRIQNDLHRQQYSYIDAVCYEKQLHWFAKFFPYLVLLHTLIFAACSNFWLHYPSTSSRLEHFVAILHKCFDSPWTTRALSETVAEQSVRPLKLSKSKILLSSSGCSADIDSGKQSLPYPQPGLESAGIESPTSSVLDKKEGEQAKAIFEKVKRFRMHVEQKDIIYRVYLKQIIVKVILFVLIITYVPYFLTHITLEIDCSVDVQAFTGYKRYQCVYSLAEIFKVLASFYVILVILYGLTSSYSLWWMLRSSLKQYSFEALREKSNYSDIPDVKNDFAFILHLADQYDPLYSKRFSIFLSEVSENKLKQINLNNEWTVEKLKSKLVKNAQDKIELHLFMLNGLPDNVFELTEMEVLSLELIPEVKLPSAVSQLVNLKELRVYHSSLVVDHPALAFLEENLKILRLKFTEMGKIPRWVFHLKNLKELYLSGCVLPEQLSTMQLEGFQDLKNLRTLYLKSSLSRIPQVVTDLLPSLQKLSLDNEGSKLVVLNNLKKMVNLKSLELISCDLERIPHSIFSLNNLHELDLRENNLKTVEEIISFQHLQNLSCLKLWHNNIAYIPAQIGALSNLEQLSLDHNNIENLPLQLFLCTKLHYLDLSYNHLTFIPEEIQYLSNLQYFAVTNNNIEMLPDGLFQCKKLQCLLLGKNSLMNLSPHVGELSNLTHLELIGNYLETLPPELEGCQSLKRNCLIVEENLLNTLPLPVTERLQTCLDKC
Sequence of LRRC8A (SWELL1), LRRC8 volume-regulated anion channel complex (Q8TDW0 whole entry partner): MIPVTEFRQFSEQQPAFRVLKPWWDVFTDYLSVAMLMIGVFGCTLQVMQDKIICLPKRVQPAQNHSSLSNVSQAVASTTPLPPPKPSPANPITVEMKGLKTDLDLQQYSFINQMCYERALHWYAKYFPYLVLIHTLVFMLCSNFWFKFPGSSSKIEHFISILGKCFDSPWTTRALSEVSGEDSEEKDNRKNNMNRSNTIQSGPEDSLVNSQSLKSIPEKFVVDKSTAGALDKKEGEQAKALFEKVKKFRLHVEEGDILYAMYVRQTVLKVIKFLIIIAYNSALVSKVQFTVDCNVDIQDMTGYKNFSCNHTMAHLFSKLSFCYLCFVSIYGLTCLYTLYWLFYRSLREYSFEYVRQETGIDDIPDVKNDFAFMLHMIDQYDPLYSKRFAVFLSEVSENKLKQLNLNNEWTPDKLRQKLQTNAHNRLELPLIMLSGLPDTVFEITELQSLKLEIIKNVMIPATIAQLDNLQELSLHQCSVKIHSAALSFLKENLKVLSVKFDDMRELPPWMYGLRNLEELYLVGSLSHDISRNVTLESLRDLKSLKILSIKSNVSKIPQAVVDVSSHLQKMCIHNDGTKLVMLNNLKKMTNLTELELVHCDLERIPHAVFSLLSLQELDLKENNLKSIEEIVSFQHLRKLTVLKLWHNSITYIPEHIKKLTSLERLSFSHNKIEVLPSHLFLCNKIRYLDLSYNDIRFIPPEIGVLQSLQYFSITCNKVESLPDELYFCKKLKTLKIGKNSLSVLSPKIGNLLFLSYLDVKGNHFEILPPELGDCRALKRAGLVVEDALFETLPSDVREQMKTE
Sequence of LRRC8A (SWELL1), LRRC8 volume-regulated anion channel complex (Q7L1W4 whole entry partner): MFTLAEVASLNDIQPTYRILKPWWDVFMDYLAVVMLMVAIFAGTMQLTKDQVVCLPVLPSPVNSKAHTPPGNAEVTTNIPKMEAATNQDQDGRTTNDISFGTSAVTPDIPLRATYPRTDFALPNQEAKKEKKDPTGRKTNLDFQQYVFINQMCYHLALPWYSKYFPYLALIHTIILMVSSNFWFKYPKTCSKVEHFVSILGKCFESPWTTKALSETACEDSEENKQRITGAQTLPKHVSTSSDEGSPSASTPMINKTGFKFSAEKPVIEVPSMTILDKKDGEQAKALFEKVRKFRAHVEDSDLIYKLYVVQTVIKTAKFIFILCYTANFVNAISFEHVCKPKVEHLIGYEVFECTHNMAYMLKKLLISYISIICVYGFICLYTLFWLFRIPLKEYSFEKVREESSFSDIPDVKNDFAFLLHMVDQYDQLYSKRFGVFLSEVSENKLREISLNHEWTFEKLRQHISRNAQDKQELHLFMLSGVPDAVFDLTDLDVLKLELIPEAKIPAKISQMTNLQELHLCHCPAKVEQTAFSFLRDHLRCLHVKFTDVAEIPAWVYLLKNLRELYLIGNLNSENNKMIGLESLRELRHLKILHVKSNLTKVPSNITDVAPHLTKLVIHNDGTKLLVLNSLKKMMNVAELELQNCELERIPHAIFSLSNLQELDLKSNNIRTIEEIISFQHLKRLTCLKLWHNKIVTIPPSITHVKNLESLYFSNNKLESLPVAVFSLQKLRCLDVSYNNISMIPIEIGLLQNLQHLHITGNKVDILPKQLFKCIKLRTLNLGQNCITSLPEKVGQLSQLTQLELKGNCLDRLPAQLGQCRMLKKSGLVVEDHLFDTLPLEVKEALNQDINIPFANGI

| Molecule | IC50 |
| --- | --- |
| CCCCC1(C2CCCC2)Cc2cc(OCCCC(=O)O)c(Cl)c(Cl)c2C1=O (centres unmarked) [SN-401, 4-(2-butyl-6,7-dichloro-2-cyclopentylindan-1-on-5-yl)oxybutyric acid] | 1500 nM |
| SN-406 | 1000 nM |
